Data reported in patent US20210045385A1, “PYRIDAZINONE-SUBSTITUTED KETOXIMES AS HERBICIDES” (FMC Corporation, priority 2018, published 2021).

Columns and labels:
Assay type in all cases: in vivo
[1] = test system: wheat (Triticum aestivum); assay: Test C postemergence, visual plant response rating
Method in brief: (§1)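 Compounds in a non-phytotoxic solvent with surfactant were applied as a directed soil spray preemergence or to 2–10 cm, one- to two-leaf plants postemergence, in loam–sand soil. After about 10 d in a greenhouse, injury was visually rated against untreated controls on a 0–100 scale (100 = complete control).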

kochia (Bassia scoparia) [2] = assay: Test C postemergence, visual plant response rating
Method in brief: as §1

[3] = test system: ragweed (common ragweed, Ambrosia artemisiifolia); assay: Test C postemergence, visual plant response rating
Method in brief: as §1

[4] = test system: barnyardgrass (Echinochloa crus-galli); assay: Test C postemergence, visual plant response rating
Method in brief: as §1

[5] = test system: Italian ryegrass (Lolium mutiflorum); assay: Test C postemergence, visual plant response rating
Method in brief: as §1

corn (Zea mays) = assay: Test C postemergence, visual plant response rating
Method in brief: as §1

[6] = test system: galium (catchweed bedstraw, Galium aparine); assay: Test C postemergence, visual plant response rating
Method in brief: as §1

[7] = test system: blackgrass (Alopecurus myosuroides); assay: Test C postemergence, visual plant response rating
Method in brief: as §1

[8] = test system: pigweed (Amaranthus retroflexus); assay: Test C postemergence, visual plant response rating
Method in brief: as §1

[9] = test system: foxtail, giant (giant foxtail, Setaria faberi); assay: Test C postemergence, visual plant response rating
Method in brief: as §1

kochia (Bassia scoparia) [10] = assay: Test C preemergence, visual plant response rating; details: Test C, 0 is no effect, 100 is complete control
Method in brief: as §1

[11] = test system: ragweed (common ragweed, Ambrosia artemisiifolia); assay: Test C preemergence, visual plant response rating; details: Test C, 0 is no effect, 100 is complete control
Method in brief: as §1

[12] = test system: barnyardgrass (Echinochloa crus-galli); assay: Test C preemergence, visual plant response rating; details: Test C, 0 is no effect, 100 is complete control
Method in brief: as §1

[13] = test system: Italian ryegrass (Lolium mutiflorum); assay: Test C preemergence, visual plant response rating; details: Test C, 0 is no effect, 100 is complete control
Method in brief: as §1

[14] = test system: pigweed (Amaranthus retroflexus); assay: Test C preemergence, visual plant response rating; details: Test C, 0 is no effect, 100 is complete control
Method in brief: as §1

[15] = test system: foxtail, giant (giant foxtail, Setaria faberi); assay: Test C preemergence, visual plant response rating; details: Test C, 0 is no effect, 100 is complete control
Method in brief: as §1

[16] = test system: duck salad (Heteranthera limosa); assay: Test D flooded paddy test, visual plant response rating; details: 250 g ai/ha, scale 0 to 100 (0 no effect, 100 complete control), 13 to 15 d
Method in brief: (§2)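 Plants were grown to the 2-leaf stage, pots flooded to 3 cm above soil, and compound applied directly into the paddy water, with the depth held throughout. After 13 to 15 d in a greenhouse, response was rated visually against untreated controls on a 0–100 scale (0 no effect, 100 complete control).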

[17] = test system: barnyardgrass (Echinochloa crus-galli); assay: as above; details: 250 g ai/ha, scale 0 to 100 (0 no effect, 100 complete control), 13 to 15 d
Method in brief: as §2

[18] = test system: sedge umbrella (small-flower umbrella sedge, Cyperus difformis); assay: as above; details: 250 g ai/ha, scale 0 to 100 (0 no effect, 100 complete control), 13 to 15 d
Method in brief: as §2

rice (Oryza sativa) = assay: as above; details: 250 g ai/ha, scale 0 to 100 (0 no effect, 100 complete control), 13 to 15 d
Method in brief: as §2

[19] = Test C, postemergence, 125 g ai/ha

Structure (SMILES) | Wheat plant response rating (0 to 100 scale) ([1]; Postemergence, 31 g ai/ha) | Wheat plant response rating (0 to 100 scale) [1, 19] | Kochia plant response rating (0 to 100 scale) (kochia (Bassia scoparia) [2]; Postemergence, 31 g ai/ha) | Kochia plant response rating (0 to 100 scale) (kochia (Bassia scoparia) [2]; [19]) | Ragweed plant response rating (0 to 100 scale) ([3]; Postemergence, 31 g ai/ha) | Ragweed plant response rating (0 to 100 scale) [3, 19] | Barnyardgrass plant response rating (0 to 100 scale) ([4]; Postemergence, 31 g ai/ha) | Barnyardgrass plant response rating (0 to 100 scale) [4, 19] | Ryegrass, Italian plant response rating (0 to 100 scale) ([5]; Postemergence, 31 g ai/ha) | Ryegrass, Italian plant response rating (0 to 100 scale) [5, 19] | Corn plant response rating (0 to 100 scale) (corn (Zea mays); Postemergence, 31 g ai/ha) | Corn plant response rating (0 to 100 scale) (corn (Zea mays); [19]) | Galium plant response rating (0 to 100 scale) ([6]; Postemergence, 31 g ai/ha) | Galium plant response rating (0 to 100 scale) [6, 19] | Blackgrass plant response rating (0 to 100 scale) ([7]; Postemergence, 31 g ai/ha) | Blackgrass plant response rating (0 to 100 scale) [7, 19] | Pigweed plant response rating (0 to 100 scale) ([8]; Postemergence, 31 g ai/ha) | Pigweed plant response rating (0 to 100 scale) [8, 19] | Foxtail, Giant plant response rating (0 to 100 scale) ([9]; Postemergence, 31 g ai/ha) | Foxtail, Giant plant response rating (0 to 100 scale) [9, 19] | further results
CON=C(c1cccc(OC(F)F)c1)c1c(O)c(C)nn(C)c1=O [Compound 202] | 0 | 0 | 10 | 40 | 0 | 20 | 0 | 10 | 10 | 30 | 0 | 0 | 40 | 70 | 0 | 0 | 20 | 60 | 0 | 0 | Kochia plant response rating (0 to 100 scale) (kochia (Bassia scoparia) [10]; 31 g ai/ha): 0; Kochia plant response rating (0 to 100 scale) (kochia (Bassia scoparia) [10]; 125 g ai/ha): 0; Ragweed plant response rating (0 to 100 scale) ([11]; 31 g ai/ha): 0; Ragweed plant response rating (0 to 100 scale) ([11]; 125 g ai/ha): 10; Barnyardgrass plant response rating (0 to 100 scale) ([12]; 31 g ai/ha): 0; Barnyardgrass plant response rating (0 to 100 scale) ([12]; 125 g ai/ha): 0; Ryegrass, Italian plant response rating (0 to 100 scale) ([13]; 31 g ai/ha): 0; Ryegrass, Italian plant response rating (0 to 100 scale) ([13]; 125 g ai/ha): 10; Pigweed plant response rating (0 to 100 scale) ([14]; 31 g ai/ha): 0; Pigweed plant response rating (0 to 100 scale) ([14]; 125 g ai/ha): 0; Foxtail, Giant plant response rating (0 to 100 scale) ([15]; 31 g ai/ha): 0; Foxtail, Giant plant response rating (0 to 100 scale) ([15]; 125 g ai/ha): 0; Plant response rating, Ducksalad (Flood) [16]: 0; Plant response rating, Barnyardgrass (Flood) [17]: 0; Plant response rating, Sedge, Umbrella (Flood) [18]: 0; Plant response rating, Rice (Flood) (rice (Oryza sativa)): 0
C#CCO/N=C(\c1cccc(/C=C\Cl)c1)c1c(O)c(C)nn(C)c1=O [Compound 264] | 20 | 50 | 40 | 70 | 40 | 60 | 10 | 50 | 0 | 70 | 10 | 0 | 50 | 70 | 30 | 60 | 40 | 60 | 10 | 60 | Kochia plant response rating (0 to 100 scale) (kochia (Bassia scoparia) [10]; 31 g ai/ha): 0; Kochia plant response rating (0 to 100 scale) (kochia (Bassia scoparia) [10]; 125 g ai/ha): 0; Ragweed plant response rating (0 to 100 scale) ([11]; 31 g ai/ha): 0; Ragweed plant response rating (0 to 100 scale) ([11]; 125 g ai/ha): 30; Barnyardgrass plant response rating (0 to 100 scale) ([12]; 31 g ai/ha): 0; Barnyardgrass plant response rating (0 to 100 scale) ([12]; 125 g ai/ha): 0; Ryegrass, Italian plant response rating (0 to 100 scale) ([13]; 31 g ai/ha): 0; Ryegrass, Italian plant response rating (0 to 100 scale) ([13]; 125 g ai/ha): 90; Pigweed plant response rating (0 to 100 scale) ([14]; 31 g ai/ha): 0; Pigweed plant response rating (0 to 100 scale) ([14]; 125 g ai/ha): 30; Foxtail, Giant plant response rating (0 to 100 scale) ([15]; 31 g ai/ha): 0; Foxtail, Giant plant response rating (0 to 100 scale) ([15]; 125 g ai/ha): 20; Plant response rating, Ducksalad (Flood) [16]: 0; Plant response rating, Barnyardgrass (Flood) [17]: 0; Plant response rating, Sedge, Umbrella (Flood) [18]: 0; Plant response rating, Rice (Flood) (rice (Oryza sativa)): 0
CCO/N=C(/c1c(O)c(C)nn(C)c1=O)c1cccc2cc(Cl)ccc12 [Compound 244] | 0 | 0 | 20 | 20 | 90 | 40 | 30 | 50 | 0 | 10 | 10 | 30 | 80 | 90 | 40 | 70 | 80 | 90 | 80 | 80 | Kochia plant response rating (0 to 100 scale) (kochia (Bassia scoparia) [10]; 31 g ai/ha): 0; Kochia plant response rating (0 to 100 scale) (kochia (Bassia scoparia) [10]; 125 g ai/ha): 0; Ragweed plant response rating (0 to 100 scale) ([11]; 31 g ai/ha): 10; Ragweed plant response rating (0 to 100 scale) ([11]; 125 g ai/ha): 20; Barnyardgrass plant response rating (0 to 100 scale) ([12]; 31 g ai/ha): 40; Barnyardgrass plant response rating (0 to 100 scale) ([12]; 125 g ai/ha): 70; Ryegrass, Italian plant response rating (0 to 100 scale) ([13]; 31 g ai/ha): 0; Ryegrass, Italian plant response rating (0 to 100 scale) ([13]; 125 g ai/ha): 20; Pigweed plant response rating (0 to 100 scale) ([14]; 31 g ai/ha): 50; Pigweed plant response rating (0 to 100 scale) ([14]; 125 g ai/ha): 90; Foxtail, Giant plant response rating (0 to 100 scale) ([15]; 31 g ai/ha): 90; Foxtail, Giant plant response rating (0 to 100 scale) ([15]; 125 g ai/ha): 100; Plant response rating, Ducksalad (Flood) [16]: 50; Plant response rating, Barnyardgrass (Flood) [17]: 10; Plant response rating, Sedge, Umbrella (Flood) [18]: 45; Plant response rating, Rice (Flood) (rice (Oryza sativa)): 15
